In patent US10287337B2 (priority 2015, dated 2019):
Where two headings read alike, the source gives them in different places.

How the values were obtained:
[1] = target: T1, human calcitonin CGRP1 (CGRP1) membrane (Homo sapiens, UniProt O60894+Q16602); type: binding; details: for binding affinity on CGRP receptors (in words): comparison between peptides
T1 construct: purchased Perkin Elmer (Waltham, Mass.)
Description: CGRP1 membrane was homogenized in the assay buffer (50 mM Tris-HCl pH 7.4, 5 mM MgCl2, 0.5% BSA, 0.05% Tween20). […] After 1 h of incubation, at room temperature, samples were filtered, using a Tomtec cell harvester, through glass fiber filters that had been presoaked in 0.05% polyethyleneimine and washed with the cold Tris buffer (50 mM Tris-HCl pH7.4). Filters were counted on a betaplate reader (Wallac).

[2] = tested on: tibial neuroma-induced neuropathic pain in rats; experiment: Tibial neuroma transposition model, neuroma tenderness; type: in vivo, rat; details: injected into skin over neuroma site
From the text: Sprague Dawley rats (male, approximately 400 g) were undergone surgery as described by Dorsi et al., briefly, a 2-3 cm incision was made through the skin and subcutaneous fascia of the ventral surface of the pelvic leg extending from the tarsometatarsal joint to approximately 1 cm distal to the level of the stifle the nerve was isolated and the posterior tibial branch was ligated and then sharply transected approximately 2 mm distal to the ligature, as illustrated in FIG. 8A. After the medial skin incision closure, the rat was transferred to a recovery cage devoid of bedding and placed halfway upon a recirculating hot water pad until standing; once recovered, the rat was returned to its home cage and monitored daily for signs of pain and wound dehiscence.
The rats were allowed to recover from the surgical procedure before beginning behavioral testing to assess neuroma development. On post-operative days 7 and 14, rats were assessed for mechanical pain using the “up-down” method of Von Frey mechanical testing and direct mechanical stimulation of the neuroma (referred to as neuroma tenderness testing). Neuroma tenderness was tested by applying the 15 g filament to the neuroma site up to five times in a series with a three second break between applications; the series was completed and scored as a positive as soon as a positive withdrawal response is seen. […]

[3] = tested on: paw incision-induced postoperative pain in rats; experiment: Paw incision-induced postoperative pain model, mechanical pain threshold; type: in vivo, rat
From the text: A clinically applicable incision model in rodents is a hind-paw deep incision that produces a robust mechanical and cold allodynia, and thermal hyperalgesia (Pogatzki et al., 2003; Xu and Brennan, 2010). Male rats (Sprague-Dawley, 250-260 g, Harlan) used (n=8/group) were anesthetized with 2.5% isoflurane and the skin of the dorsolateral hindpaw surface were prepped by first depilitating it (using Nair), followed by rinsing and application of povidone-iodine. Afterwards, a 5 mm longitudinal incision was made near the hairy/glabrous border though the skin and subcutaneous fascia of the left hindpaw as described by (Pogatzki et al., 2003; Xu and Brennan, 2010). After briefly elevating the underlying muscle with curved forceps the wound is closed with a single nylon (8-0) mattress stitch.
Pre-surgery (baseline) and 24 hours after the surgery, the mechanical allodynia of the incision hindpaws of the rats were assessed using von Frey monofilaments with an up/down procedure (Chaplan et al., 1994). […] Mechanical pain thresholds were measured at 0.5, 1, 2, 3, 4, 5 and 6 hours post-intradermal injection.

[4] = tested on: UVB radiation-induced inflammatory pain in rat cheek; type: in vivo; details: topical application 10 μM, 100 μL, 2% propylene glycol, UVB-irradiated cheek
[5] = tested on: UVB radiation-induced inflammatory pain in rat cheek; type: in vivo; details: topical application 10 μM, 100 μL
From the text: Ultraviolet B (UVB) radiation causes cutaneous inflammation in humans and animals. One important clinical consequence of UVB-induced inflammation is causing hyperalgesia. Changes in thermal sensitivities in the area of primary UVB irradiation are well documented both in humans and in the animal models (Zhang et al., 2009). […] This model provides an experimental model of post radiation pain and can mimic one type of burn pain. To determine the magnitude of anti-inflammatory pain effects for a given drug transdermally delivered by way of microneedle delivery, the depilated rat's cheeks were exposed to an inflammatory dosage of Ultraviolet B radiation (Zhang et al., 2009).
With the skin of a rat's cheek was stretched, the circular (8 mm in diameter) fiberglass applicator of the UV Curing Device (Dymax Bluewave 200) was applied to the center of the rat's cheek. To produce an appropriate inflammation, a total dose of 1200 mJ/cm^2 UVB was administered to one rat cheek for 25 seconds. The same procedure was performed on the rat's contralateral cheek. Upon completion of UVB irradiation, all rats were returned to their home cages and were assessed for thermal pain between 24-48 hours later. […] The rats were lightly anesthetized with urethane (800 mg/kg, IP) and heat-induced withdrawal latencies of the cheeks (an indicator of C fiber stimulation responses) were measured. […] A sham control group (n=6) were only completely depilated and cleansed with ethanol wipes but without UVB challenge.
After removing patches, cheek withdrawal latencies induced by continuous and noxious heat were assessed at different time points from the end of the 20 minute treatment period up to 3 hours post treatment.
The patches were applied on the rat cheek for 20 minutes. After removing the patches, cheek withdrawal latencies induced by continuous and noxious heat were assessed at different time points up to 3 hours as described above.
(§1) After removing the patches, cheek withdrawal latencies induced by continuous and noxious heat were assessed at different time points up to 3 hours.
Accordingly, anti-inflammatory effects were examined 48 hours post-UVB and after the application of the patch. Twelve rats were subjected to UVB radiation (1200 mJ/cm^2). […] The patch was placed over the inflamed area for a period of 20 minutes. […] Sham control group rats (n=6) were completely depilated and cleansed with ethanol wipes but without any other treatment. The rats were returned to their home cages, and assessed for thermal pain responses 48 hours later. As usual, cheek withdrawal latencies in response to continuous and noxious heat were recorded over a 3-hour time period (hours 49-51 post-UVB).
as §1
After removing the patches, cheek withdrawal latencies induced by continuous and noxious heat were assessed at different time points from 20 minutes post administration up to 3 hours.
Because UVB-irradiation may increase skin permeability, a topical formulation, but not limited to the sample shown here, was made.

[6] = intradermal injection 1 μM, 50 μL, 24 hours after incision
[7] = prevention: injection 1 μM, 50 μL just prior to closing of the wound

T1 sequence (O60894 27-148): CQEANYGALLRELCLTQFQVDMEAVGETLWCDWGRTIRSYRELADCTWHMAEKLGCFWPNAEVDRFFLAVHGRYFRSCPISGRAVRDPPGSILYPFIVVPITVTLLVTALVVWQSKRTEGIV
T1 sequence (Q16602 23-461): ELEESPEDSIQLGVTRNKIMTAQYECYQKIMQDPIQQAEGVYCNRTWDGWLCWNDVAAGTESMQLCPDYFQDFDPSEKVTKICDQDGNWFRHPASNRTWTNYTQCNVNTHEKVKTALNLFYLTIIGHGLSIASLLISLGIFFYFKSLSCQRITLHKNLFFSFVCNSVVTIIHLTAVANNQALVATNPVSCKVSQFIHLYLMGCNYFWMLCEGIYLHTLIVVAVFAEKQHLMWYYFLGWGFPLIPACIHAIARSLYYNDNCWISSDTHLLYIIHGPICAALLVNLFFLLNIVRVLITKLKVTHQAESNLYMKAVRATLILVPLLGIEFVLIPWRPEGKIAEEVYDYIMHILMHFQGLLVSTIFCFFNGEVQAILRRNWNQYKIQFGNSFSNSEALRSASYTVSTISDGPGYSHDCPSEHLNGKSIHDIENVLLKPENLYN

Substance: H-NFVPTNVGPFAF-NH2 [AFA-peptide 3, NH2-N-F-V-P-T-N-V-G-P-F-A-F-CONH2]
- Hill slope ([1]; 0.24 nM [125I]-CGRP, Mean±SD): 1.20 ± 0.02
- binding affinity on CGRP receptors (in words) [1]: higher affinities than conventional CGRP 27-37 and CGRP 8-37
- binding affinity on CGRP receptors (in words) ([1]; listed as Peptide-3): most potent in binding assay
- duration of analgesic effect [2]: 3 to 4 h
- neuroma tenderness (in words) ([2]; 0.3 and 1 μM, 50 μL): reduced neuroma tenderness in dose-related manner
- duration of action [3, 6]: around 6 hours
- mechanical pain threshold (in words) [3, 6]: significantly increased
- duration of action [3, 7]: 24 h
- mechanical pain thresholds vs vehicle (in words) [3, 7]: significantly increased mechanical pain thresholds
- onset of analgesic effect post treatment ([3]; prevention: injection just prior to closing of the wound, second timepoint assessed): 1 h
- A-delta-fiber-mediated responses (in words) [4]: little effects
- duration of action [5]: 2 h
- C-fiber-mediated thermal pain thresholds vs vehicle (in words) ([5]; 2% propylene glycol, UVB-irradiated cheek): significant and substantial increase
